PubChem BioAssay AID540311 (Sanford-Burnham Center for Chemical Genomics, 2011)
The source made the active and inactive calls.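 Rule for the calls: active = mean EC50 at or below 20 µM; inactive = the rest.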

System: CHO-XBP1 cells, IRE1-XBP1 luciferase reporter luminescence
Experiment: XBP1 luciferase reporter activation – CHO-XBP1 cells, luminescence, SAR follow-up (AID 540311)

In the case of `COc1cc(-c2ccccc2)nc(Nc2nc(C)c3ccccc3n2)n1`, the EC50 is reported as > 80 µM (inactive).
For `Cc1nc(Nc2ncccn2)nc2ccccc12`, the EC50 was > 80 µM (inactive).
`Cc1ccnc(Nc2ncccn2)n1` was tested, and the EC50 was > 80 µM (inactive).
For `Cc1cc(=O)[nH]c(Nc2nc(C)c3ccccc3n2)n1`, the EC50 was > 80 µM (inactive).
For `Cc1nc(Nc2nccc(-c3ccccc3)n2)nc2ccccc12`, the EC50 was > 80 µM (inactive).
`Cc1ccnc(Nc2nc(-c3ccccc3)cc(=O)[nH]2)n1` was tested, and the EC50 was > 80 µM (inactive).
In the case of `Cc1nc(Nc2nc(-c3ccccc3)cc(=O)[nH]2)nc2ccccc12`, the EC50 is reported as 12.8 µM.
In the case of `Cc1cc(-c2ccccc2)nc(Nc2nc(C)c3ccccc3n2)n1`, the EC50 is reported as > 80 µM (inactive).
